Test results from patent US20180200279A1, “INHIBITION OF HSV-1-ASSOCIATED CORNEAL NEOVASCULARIZATION USING INHIBITORS OF CYCLIN-DEPENDENT KINASE 9” (XAVIER UNIVERSITY OF LOUISIANA, priority 2014, published 2018).

Assays:
[1] = system: HSV-1 17syn+ induced corneal neovascularization; test: HSV-1 corneal neovascularization mouse model, slit-lamp examination score; format: in vivo, Balb/c mice; conditions: day 25 post infection; drops 4 times daily for 14 days; 1% TFT, 0.01% flavopiridol, 0.1% DRB; n=10
Protocol: Corneal neovascularization was determined in a masked fashion by slit lamp analysis on days 2, 4, 7, 9, 11, 14, 18, and 25 post-infection (PI) with 5×10^5 PFU/eye of HSV-1 17syn+ using the formula A=(C×0.4×L×n)/2 where C=clock hours of neovascularization; 30° arc is 1 (360° circle with a total of 12); L is the length of the longest neovessel, and A is the area of neovascularization.
All experimental procedures were performed in accordance with the ARVO Resolution for the Use of Animals in Ophthalmic and Vision Research and were approved by the Xavier University Animal Care and Use Committee. Female 20 g Balb/c mice were obtained from Charles River Laboratories. Mice were allowed to equilibrate to their surroundings for 2 weeks and then were anesthetized by intramuscular administration of xylazine (6.6 mg/kg of body weight) and ketamine (100 mg/kg of body weight). The corneas were mildly scarified in a 2×2 cross-hatch pattern and each cornea was inoculated with 5×10^5 PFU of strain HSV 17syn+. […] Average neovascularization/eye was scored using the formula A=(C×0.4×L×π)/2 where C=clock hours of neovascularization; 30° arc is 1 (360° circle with a total of 12); L is the length of the longest neovessel, and A is the area of neovascularization. Students scored (by eye) the animals on the days indicated in a masked fashion using the slit-lamp, and images representative of each group were taken. Clinical scores based on epiphora, inflammation and discharge were calculated where 0=no manifestations, +1=slight manifestations, +2=moderate manifestations, and +3=severe manifestations. […] Ex ovo chick embryo chorioallantoic membrane collagen angiogenesis assays were performed using methods as previously described (Deryugina E I and Quigley J P. Chapter 2. Chick embryo chorioallantoic membrane models to quantify angiogenesis induced by inflammatory and tumor cells or purified effector molecules. Methods Enzymol. 444:21-41. 2008). […]
This was assessed with the dose and frequency that was used in the chemotherapeutic study of HSV-1 corneal neovascularization. […]

HUVEC = test: Endothelial cell transwell migration assay; format: cell-based, human; conditions: 16 hours
Protocol: Migration/invasion assays were performed using 24-well, 8-μm pore size BD Biocoat Matrigel migration chambers according to the manufacturer's instructions (BD Biosciences, San Jose, Calif.). […] Cells were allowed to migrate for 16 hours at 37° C. Following incubation, cotton swabs were used to remove the cells on the top surface of the membrane, and cells on the bottom side of the membrane were fixed with 4% formaldehyde for 30 min, washed 3-5 times with PBS, and then stained with 10 μM Calcein AM (migration) or 10 μM Celltracker green-labeled (invasion). Migrating or invading cells from three repeats in two independent experiments were then counted using an inverted microscope. Data are expressed as mean percent migration and mean percent invading cells compared with untreated cells±SEM.
Cell migration induced by chemoattractant angiogenic factors such as bFGF and VEGF is an important step in the angiogenic process. […] Data presented as percent fluorescence normalized to control untreated cells (100% migration).

HSV-1 = test: In vitro viral inhibition (plaque) assay in CV-1 cells; format: cell-based
Protocol: Numbers of plaque-forming units (PFU) were determined in a standard plaque assay procedure using CV-1 cells.
The HSV-1 strain employed was 17 syn+. Before inoculation, numbers of plaque-forming units (PFU) were determined in a standard plaque assay procedure using CV-1 cells. Pooled primary human umbilical vein endothelial cells (HUVEC) were obtained from Lonza (Basel, Switzerland) and were cultured in Medium 199 (Life Technologies, Carlsbad, Calif.) supplemented with 20% heat-inactivated FBS, penicillin G (100 U/ml), streptomycin ([…]), 2 mM L-glutamine and 1:100 endothelial cell growth supplement (ECGS, BD Biosciences, Bedford, Mass.) on tissue culture plates coated with 0.2% gelatin up to passage 6. Cells were sub-passaged or harvested when they reached ˜80% confluence. For periods of serum-deprivation, HUVEC were incubated for 4 or 16 hours in serum-starvation medium (SSM) containing Medium 199 without phenol red or ECGS but containing 0.5% FBS unless otherwise indicated. In vitro viral inhibition assays with CV-1 cells were performed as previously described (Gong E Y. Methods for screening and profiling inhibitors of herpes simplex viruses. Methods Mol Biol. 1030:303-313. 2013).

[2] = system: corneal neovascularization due to alkali burn; test: Corneal neovascularization due to chemical (NaOH) burn in mice; format: in vivo, Balb C mice; conditions: 0.01% FP 5× daily; four days post injury; 0.15N NaOH for 15 seconds
Protocol: Following chemical treatment of mouse eyes with 0.15N NaOH, control and treated eyes were scored for neovascularization using the formula A=(C×0.4×L×pi)/2; where C=clock hours of neovascularization; 30° arc is 1 (360° L is the length of the longest neovessel, and A is the area of neovascularization. Animals were scored using a slit-lamp microscope, and images representative of each group were taken. One day post injury, flavopirodol reduced neovascularization to the level observed in undamaged and in damaged but prednisone-treated eyes.
To determine whether FP would reduce corneal neovascularization due to chemical injury in a mouse model system, female Balb C mice (7 per group) were treated in their right eyes with 0.15N NaOH for 15 seconds and the left eye was not treated with NaOH. […] Neovascularization was scored using the formula A=(C×0.4×L×pi)/2; where C=clock hours of neovascularization; 30° arc is 1 (360° L is the length of the longest neovessel, and A is the area of neovascularization. Animals were scored in a masked fashion using a slit-lamp microscope, and images representative of each group were taken. The longest possible length of a neovessel is 1.6 mm and the greatest possible arc is 12/12 hours.

global transcription = conditions: low-dose FP; Lu et al. Mol Cancer Ther (2004); cited from earlier work

Q: For `CN1CC[C@H](c2c(O)cc(O)c3c(=O)cc(-c4ccccc4Cl)oc23)[C@H](O)C1` [flavopiridol], which “slit-lamp examination (SLE) score of corneal neovascularization” value [1] is on record?
A: Its value is 0.039±0.176.

Q: What about the “percent migration normalized to untreated control cells (100%)” value (HUVEC; 100 nM flavopiridol) of the same molecule?
A: Its value is 74.99%±2.35.

Q: And the “percent migration normalized to untreated control cells (100%)” value (HUVEC; 150 nM flavopiridol)?
A: The value was 25.08±1.79%.

Q: What about the “concentration at which HSV-1 replication was significantly inhibited” value (HSV-1) of the same molecule?
A: The value was 250 nM.

Q: And the IC50 (HSV-1; Human alphaherpesvirus 1, read-out: average IC50 of HSV-1 replication)?
A: Its IC50 is 100 nM.

Q: And the “corneal neovascularization after alkali burn (slit-lamp area score)” value [2]?
A: Its value is “reduced neovascularization due to alkali burn to the level observed in undamaged and in damaged but prednisone-treated eyes”.

Q: And the “block of global transcription” value (global transcription)?
A: The value was “does not block global transcription”.
